Results as given in patent US7732437B2, “Use of anti-histaminics for acute reduction of elevated intracranial pressure” (Janssen Pharmaceutica, NV., priority 2001, dated 2010).
Marks after values point to notes of the source that are not given here.

Tests used:
[1] = test system: Sprague-Dawley rats with closed head injury; assay: Closed Head Injury (CHI) model, moderate head injury, treatment 24 h after trauma; format: in vivo, rat; settings: i.v. 0.5 mg/kg.min 10 min, then 0.1 mg/kg.min 45 min; 24 h after moderate head injury
Source text: The impact area was centered between bregma and lamda.
Near-infrared spectroscopy (NIRS) of the rat brain ‘in vivo’ allows to quantify non-invasively saturation of brain haemoglobin with oxygen (HbSat) and total brain haemoglobin concentration ([HbTot]). The latter is a measure for cerebral blood volume (CBV). Changes in the redox state of the mitochondrial enzyme cytochrome oxidase (CytOx), an indicator for tissue oxygenation, can also be monitored.
HbSat is not affected by compound 1 and the racemate (Comp. 1 and Comp. 2).
The effects of treatment with Compound 2 (i.v. infusion at a dose of 0.1 mg/kg.min during 30 min) at 24 h after moderate trauma were studied using different anesthetics (isoflurane, chloralhydrate, pentobarbital). When chloralhydrate (400 mg/kg i.p) is used as anesthetic, ICP decreases to 75% of initial value and MABP gradually increases to 110% of initial value (medians, n=6). […] Barbiturates also reduce the ICP and an important additional effect can be obtained with the compound.

[2] = test system: Sprague-Dawley rats with closed head injury; assay: Closed Head Injury (CHI) model, severe head injury; settings: for Decision (sequential statistical evaluation) / Delta %: average change of the relative ICP from baseline over the treatment period: bolus of 1 mg/kg in 1 min, then infusion of 0.5 mg/kg/min for 44 min
Source text: A clinically relevant rat model for traumatic brain injury was used to test the compounds according to the invention and the commercially available compounds. […] Trauma was induced in intubated, isoflurane anesthetized (1.5% isoflurane in a mixture of 30% O2 and 70% N2O) Sprague-Dawley rats (380-400 g) stereotaxically positioned on a table mounted on 4 springs. A 400 g steel cylinder, protected with a 9 mm diameter silicon disc, was dropped on the unprotected skull from a height of either 70 cm or 50 cm (respectively ‘severe’ and ‘moderate’ head injury). The impact area was centered between bregma and lamda. ICP was recorded using a Codman microsensor probe inserted in the parietal cortex. […] The severe head injury mode was used for the evaluation of pharmacological effects immediately after trauma (screening procedure). […] In pharmacological studies, animals with a pathological ICP between 12.5 and 35 mm Hg were included. The changes in ICP, mean arterial blood pressure (MABP) and cerebral perfusion pressure CPP (=MABP—CPP) were expressed as percentage of the initial value at onset of the treatment.
On a weekly base, 4 treated groups of 3 rats were compared with 3 saline treated animals. Since conventional statistical methods require a larger amount of animals, a sequential procedure was used. Sequential methods operate in different stages. At each stage, a group of animals was selected as homogeneous as possible. Animals were randomly allocated to either drugs or saline. […] Given the biological relevant level of activity that must be detected, the expected fraction of false positive and negative results was known and fixed. A sequential two-sample grouped rank test was used.
Treatment was started at 20 min after severe head injury and involved administering a dose of 0.5 mg/kg/min during 10 minutes, followed by 0.1 mg/kg/min during 50 min.
Ranitidine was infused for 6 min at a dose of 2 mg/kg/min in the rat CHI-model after inflicting severe head injury. Solvent (NaCl+H2T) was given at the same rate. In each group, 6 rats were treated. […] The percentage of reduction are calculated as % change of the ICP recorded at the onset of the treatment and at the end of the infusion.
A number of commercially available H1- and H2-antagonists was infused for 10 min at a dose of 0.5 mg/kg/min in the rat CHI-model after inflicting severe head injury. Solvent (NaCl+H2T) was given at the same rate. In each group, 6 rats were treated.

non-traumatised rats = assay: ICP and blood pressure in non-traumatized rats; format: in vivo, rat; settings: for effects of H2-agonists (ICP, blood pressure): dimaprit 0.5 mg/kg/min for 10 minutes, impromidine increasing doses up to 3.75 mg/kg/hour; for effects of H2-agonists on blood pressure and ICP, high dose: dimaprit 2 mg/kg/min for 10 minutes, impromidine bolus of 0.5 mg/kg
Description: For comparison, two commercially available H2-agonists (dimaprit and impromidine) were also tested by infusion into non-traumatized rats, using a dose of 0.5 mg/kg/min for 10 minutes for dimaprit and increasing doses up to 3.75 mg/kg/hour for impromidine.
Rats The effect of Compound 2, Compound 1 and Racemate (comp. 1 and comp. 2) on ICP, MABP and CPP was tested in anaesthetised non-traumatised rats. […] Conclusion

[3] = biological target: T1, human histamine H1-receptor (Homo sapiens, UniProt P35367); assay: Radioligand binding, histamine H1-receptor, competitive inhibition of [3H]Pyrilamine; settings: CHO-cells transfected with the human histamine H1-receptor, read-out: H1-antagonist activity (pIC50) (converted)
T1 construct: expressed in transfected cells; host or cells: CHO cells
Description: Competitive inhibition of [^3H] […] Incubation was done during 150 min at 22° C.

[4] = 0.5 mg/kg/min 10 min, then 0.1 mg/kg/min 50 min, start 20 min after severe CHI, n = 10

T1 sequence (P35367 whole entry): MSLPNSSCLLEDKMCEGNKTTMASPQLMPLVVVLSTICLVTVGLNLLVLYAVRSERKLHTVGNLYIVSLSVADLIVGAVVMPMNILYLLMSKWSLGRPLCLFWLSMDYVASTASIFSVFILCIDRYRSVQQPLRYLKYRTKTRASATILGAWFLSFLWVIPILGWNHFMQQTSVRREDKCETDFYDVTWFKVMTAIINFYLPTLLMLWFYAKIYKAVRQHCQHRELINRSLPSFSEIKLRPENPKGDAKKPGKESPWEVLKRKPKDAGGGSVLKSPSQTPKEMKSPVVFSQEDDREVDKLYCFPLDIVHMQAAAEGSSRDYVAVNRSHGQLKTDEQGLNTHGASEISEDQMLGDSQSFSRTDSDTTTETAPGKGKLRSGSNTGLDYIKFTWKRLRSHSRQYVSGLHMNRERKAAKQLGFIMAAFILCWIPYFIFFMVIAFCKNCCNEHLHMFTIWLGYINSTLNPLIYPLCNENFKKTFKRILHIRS

| SMILES | IC50 [3] [nM] | Decision (sequential statistical evaluation) [2] | Delta %: average change of the relative ICP from baseline over the treatment period [2] [%] | effects of H2-agonists (ICP, blood pressure) (non-traumatised rats) | effects of H2-agonists on blood pressure and ICP, high dose (non-traumatised rats) | other results |
| --- | --- | --- | --- | --- | --- | --- |
| Cc1nc2n(C)c3ccccc3n2c(=O)c1CCN1CCC(C2c3ccccc3CCn3c2nc2ccccc23)CC1Cc1ccccc1 (racemic) [Racemate (comp. 1 and comp. 2), pyrimido[1,2-a]benzimidazol-4(10H)-one, 3-[2-[4-(11 ,12-dihydro-6H-benzimidazo[2,1-b][3]benzazepin-6-yl)-2-(phenylmethyl)-1-piperidinyl]ethyl]-2,10-dimethyl (E)-2-butenedioate (2:3) hydrate (1:1)] |  |  |  |  |  | effect on saturation of brain haemoglobin with oxygen HbSat (NIRS) [1]: not affected; effect on the redox state of CytOx (NIRS) [1]: do not have an effect; effect on total brain haemoglobin concentration [HbTot] (NIRS) [1]: do not have a significant effect; CPP (%), average change over treatment period, median (95% C.I.) [2, 4]: 7.5 (−2.4; 15.5) %; ETCO2 (%), average change over treatment period, median (95% C.I.) [2, 4]: 2.4 (−7.8; 3.8) %; ICP (%), average change over treatment period, % change of initial value, median (95% C.I.) [2, 4]: −19.1 (−24.9; −10.8)* %; MABP (%), average change over treatment period, median (95% C.I.) [2, 4]: 0.6 (−5.1; 8.5) %; Resp. rate(%), average change over treatment period, median (95% C.I.) [2, 4]: 9.6 (3.0; 14.8) %; effect on ICP, MABP and CPP in non-traumatised rats (non-traumatised rats; i.v. 0.5 mg/kg/min 10 minutes, then 0.1 mg/kg/min 50 min, anaesthetised): comparable with those obtained in the traumatized animals |
| CN(C)CCCSC(=N)N [dimaprit] |  |  |  | No effects were observed | blood pressure and ICP were observed to drop, but recovered after the treatment |  |
| Cc1nc[nH]c1CSCCN=C(N)NCCCc1cnc[nH]1 [impromidine] |  |  |  | No effects were observed | blood pressure and ICP were observed to drop, but recovered after the treatment |  |

Now from value to molecule, other results behind:

| IC50 [3] [nM] | SMILES | Decision (sequential statistical evaluation) [2] | Delta %: average change of the relative ICP from baseline over the treatment period [2] [%] | effects of H2-agonists (ICP, blood pressure) (non-traumatised rats) | effects of H2-agonists on blood pressure and ICP, high dose (non-traumatised rats) | other results |
| --- | --- | --- | --- | --- | --- | --- |
| 398 | Cc1nc2n(C)c3ccccc3n2c(=O)c1CCN1CCC(C2c3ccccc3CCn3c2nc2ccccc23)CC1Cc1ccccc1 (single isomer, unassigned) [Compound 47] | active | −12.0 |  |  |  |
| 794 | Cc1nc2n(C)c3ccccc3n2c(=O)c1CCN1CCC(C2c3ccccc3CCn3c2nc2ccccc23)CC1Cc1ccccc1 (stereo not shown) [Compound 30] | active | −9.3 |  |  |  |
| 398 | CCOC(=O)Cn1c2ccccc2n2c(=O)c(CCN3CCC(C4c5ccccc5CCn5c4nc4ccccc45)CC3Cc3ccccc3)c(C)nc12 (stereo not shown) [Compound 32] | active | −13.9 |  |  |  |
